The target of one test is rat P2X7 (Rattus norvegicus (Rat), UniProt Q64663). The test can be described thus: Rat P2X7 functional assay (Ca2+ influx, Fluo-4, FDSS). It is filed as cell-based. Conditions: HEK293 cells stably expressing rat P2X7; BzATP final 10 microM; 7-point dose-response; read-out: Antagonistic activities with respect to the rat P2X7 receptor (IC50). Here is the method:
Rat P2X7 Functional Assay
The functional activity of compounds was determined by measuring changes in intracellular calcium concentration using a Ca^2+-sensitive fluorescent dye, Fluo-4 (Molecular Probes). The changes in fluorescent signal were monitored by the cell imaging technology by Hamamatsu Photonics's Functional Drug Screening System (FDSS). Increases in intracellular Ca^2+ concentration were readily detected upon activation with BzATP.
HEK293 cells stably expressing rat P2X7 (GenBank accession number NM_019256) were grown in Corning CellBIND cell culture flasks, in a 5% CO2 humidified incubator to about 80% confluence. Media composition consisted of Dulbecco's Modified Eagle Medium (high glucose), 10% fetal bovine serum ([…]), 100 units/[…] Penicillin, 100 microg/mL Streptomycin and 250 microg/mL Geneticine.
1. […] Plate-out HEK293-rat P2X7 cells (40 microL medium containing 5,000 cells per well) into poly-D-lysine coated 384-well plates (BD Falcon) at 24 h prior to assay.
2. Incubate at 37° C. in 5% CO2.
3. Incubate the plate at 37° C. in 5% CO2 for 1 h.
5. Test compounds were prepared at 100× the test concentration in DMSO by serial dilution with Biomek-FX liquid handling instrument. 33× diluted compound solutions in assay buffer were prepared in intermediate compound plate with Biomek-NX liquid handling instrument. A further 3× dilution occurred in below steps 6 and 7.
6. Add 20 microL of 33× diluted compound solutions into each well and leave the plate for 10 min under the dark at room temperature.
7. Measure activity by FDSS as follows: • Set the assay plate on the stacker of FDSS. • Start the detection of fluorescence intensity at 540 nm by 480 nm exicitation. • After 30 seconds, add 20 microL of assay buffer containing 30 microM BzATP (final 10 microM).
IC50 values for compounds of the present invention were determined from 7-point dose-response studies. Curves were generated using the average of duplicate wells for each data point. Finally, the IC50 values are calculated with the best-fit dose curve determined by XLfit (ID Business Solutions Ltd.).

The next test concerns the target human P2X7 (Homo sapiens (Human), UniProt Q99572). The test can be described thus: Human P2X7 functional assay (Ca2+ influx, Fluo-4, FDSS). It is filed as cell-based. To be noted: antagonistic activity with respect to the human P2X7 receptor; BzATP final concentration 80 microM. A digest of the protocol:
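Ca2+ influx was triggered with BzATP (80 μM final) after a 10-min room-temperature compound preincubation and monitored with Fluo-4 (ex 480/em 540 nm) on FDSS. The cells were HEK293 stably carrying FLAG-tagged human P2X7. Duplicate-averaged 7-point dose-responses gave IC50s.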

Sequence of rat P2X7 (Q64663 whole entry): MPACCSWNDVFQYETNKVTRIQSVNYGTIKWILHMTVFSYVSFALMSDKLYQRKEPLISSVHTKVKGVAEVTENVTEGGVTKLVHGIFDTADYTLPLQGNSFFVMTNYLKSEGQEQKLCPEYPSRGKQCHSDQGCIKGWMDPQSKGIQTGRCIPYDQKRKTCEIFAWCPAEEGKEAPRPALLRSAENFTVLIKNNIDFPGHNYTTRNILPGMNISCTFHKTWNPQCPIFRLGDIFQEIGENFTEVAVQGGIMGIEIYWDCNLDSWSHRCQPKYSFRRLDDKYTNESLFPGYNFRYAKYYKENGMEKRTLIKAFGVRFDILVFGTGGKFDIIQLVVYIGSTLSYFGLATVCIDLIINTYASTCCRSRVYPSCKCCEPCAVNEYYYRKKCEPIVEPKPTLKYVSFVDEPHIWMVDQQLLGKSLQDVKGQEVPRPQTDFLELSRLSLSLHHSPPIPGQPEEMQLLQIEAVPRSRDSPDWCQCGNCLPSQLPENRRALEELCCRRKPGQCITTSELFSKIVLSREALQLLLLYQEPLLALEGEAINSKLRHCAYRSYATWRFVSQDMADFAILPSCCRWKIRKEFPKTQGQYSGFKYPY
Sequence of human P2X7 (Q99572 whole entry): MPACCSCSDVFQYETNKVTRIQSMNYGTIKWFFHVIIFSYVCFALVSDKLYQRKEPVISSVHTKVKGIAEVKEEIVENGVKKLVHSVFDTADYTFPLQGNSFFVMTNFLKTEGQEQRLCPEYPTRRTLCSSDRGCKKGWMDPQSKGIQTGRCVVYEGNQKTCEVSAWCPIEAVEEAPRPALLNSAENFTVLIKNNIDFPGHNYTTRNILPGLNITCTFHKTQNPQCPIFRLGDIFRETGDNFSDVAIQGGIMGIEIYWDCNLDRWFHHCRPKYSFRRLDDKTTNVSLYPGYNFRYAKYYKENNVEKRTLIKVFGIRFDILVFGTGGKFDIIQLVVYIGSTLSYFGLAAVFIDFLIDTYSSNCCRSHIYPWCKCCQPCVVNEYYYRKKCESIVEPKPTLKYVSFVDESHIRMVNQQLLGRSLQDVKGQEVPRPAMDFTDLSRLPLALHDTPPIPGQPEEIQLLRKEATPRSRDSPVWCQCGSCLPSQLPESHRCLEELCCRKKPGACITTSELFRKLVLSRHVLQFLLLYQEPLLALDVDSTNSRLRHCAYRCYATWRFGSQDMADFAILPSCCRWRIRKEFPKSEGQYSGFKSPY

Broadly, the IC50 is the midpoint of a concentration-inhibition curve. On to `COC[C@]1(O)CC[C@@](F)(C(=O)NCc2ccc(Cl)cc2Cl)c2cccnc21` (relative stereo) [Example 41, (5S*,8S*)-N-(2,4-dichlorobenzyl)-5-fluoro-8-hydroxy-8-(methoxymethyl)-5,6,7,8-tetrahydro-quinoline-5-carboxamide], for which the half-maximal inhibitory concentration (IC50) at rat P2X7 is less than 1000 nM; against human P2X7, less than 50 nM.

For the compound `COC[C@]1(O)CC[C@@](F)(C(=O)NCc2ccc(F)cc2Cl)c2cccnc21` (relative stereo) [Example 42, (5S*,8S*)-N-(2-chloro-4-fluoro-benzyl)-5-fluoro-8-hydroxy-8-(methoxymethyl)-5,6,7,8-tetra-hydroquinoline-5-carboxamide], the IC50 was less than 1000 nM on rat P2X7 and less than 50 nM against human P2X7.

As to `O=C(NCc1ccc(Cl)cc1Cl)[C@]1(F)CC[C@@](O)(CN2CC(O)C2)c2ncccc21` (relative stereo) [Example 51, (5S*,8R*)-N-(2,4-dichlorobenzyl)-5-fluoro-8-hydroxy-8-((3-hydroxyaze-tidin-1-yl)methyl)-5,6,7,8-tetrahydro-quinoline-5-carboxamide], the figures for the IC50 on rat P2X7 and against human P2X7 were less than 1000 nM and less than 50 nM, respectively.

`O=C(NCc1c(Cl)cc(Cl)cc1CO)C1CCC(O)c2ncccc21` (stereo not drawn) [Example 9, N-(2,4-dichloro-6-(hydroxy-methyl)benzyl)-8-hydroxy-5,6,7,8-tetrahydroquinoline-carboxamide]: the concentration for half-maximal inhibition (IC50) at rat P2X7 was less than 1000 nM.

On to `NC(=O)CC1CCC(C(=O)NCc2cccc(C(F)(F)F)c2Cl)c2cccnc21` (stereo not drawn) [Example 32, (2-amino-2-oxoethyl)-N-(2-chloro-3-(trifluoro-methyl)benzyl)-5,6,7,8-tetra-hydroquinoline-5-carboxamide], for which the 50% inhibitory concentration (IC50) at rat P2X7 is less than 1000 nM.

Turning to `Cc1cc(Cl)cc(Cl)c1CNC(=O)[C@@]1(F)CC[C@@H](O)c2ncccc21` [Example 126, (5R,8R)-N-(2,4-dichloro-6-methylbenzyl)-5-fluoro-8-hydroxy-5,6,7,8-tetrahydroquinoline-5-carboxamide], the 50% inhibitory concentration (IC50) on rat P2X7 was less than 1000 nM.

As to `Cc1cc(Cl)cc(Cl)c1CNC(=O)[C@]1(F)CC[C@H](O)c2ncccc21` [Example 127, (5S,8S)-N-(2,4-dichloro-6-methylbenzyl)-fluoro-8-hydroxy-5,6,7,8-tetrahydroquinoline-5-carboxamide], at rat P2X7, the IC50 was less than 1000 nM.

As to `O=C(NCc1ccc(F)cc1C(F)(F)F)[C@]1(F)CC[C@H](O)c2ncccc21` [Example 144, (5S,8S)-5-fluoro-N-(4-fluoro-2-(trifluoromethyl)benzyl)-8-hydroxy-5,6,7,8-tetrahydroquinoline-5-carboxamide], at rat P2X7, the IC50 is less than 1000 nM.

Turning to `O=C(NCc1c(F)cc(Cl)cc1Cl)[C@]1(F)CC[C@H](O)c2ncccc21` [Example 152, (5S,8S)-N-(2,4-dichloro-6-fluorobenzyl)-5-fluoro-8-hydroxy-5,6,7,8-tetrahydroquinoline-5-carboxamide], the half-maximal inhibitory concentration (IC50) on rat P2X7 was less than 1000 nM.

Turning to `Cc1cccc(Cl)c1CNC(=O)[C@]1(F)CC[C@H](O)c2ncccc21` [Example 161, (5S,8S)-N-(2-chloro-6-methylbenzyl)-5-fluoro-8-hydroxy-5,6,7,8-tetrahydroquinoline-5-carboxamide], the IC50 on rat P2X7 was less than 1000 nM.

On to `O=C(NCc1ccc(F)c(F)c1Cl)[C@]1(F)CC[C@H](O)c2ncccc21` [Example 174, (5S,8S)-N-(2-chloro-3,4-difluorobenzyl)-5-fluoro-8-hydroxy-5,6,7,8-tetrahydroquinoline-5-carboxamide], for which the half-inhibitory concentration (IC50) on rat P2X7 was less than 1000 nM.

`O=C(NCc1cccc(C(F)(F)F)c1F)[C@]1(F)CC[C@H](O)c2ncccc21` [Example 175, (5S,8S)-5-fluoro-N-(2-fluoro-3-(trifluoromethyl)benzyl)-8-hydroxy-5,6,7,8-tetrahydroquinoline-5-carboxamide]: the IC50 at rat P2X7 is less than 1000 nM.

As for `O=C(NCc1ccc(C(F)(F)F)cc1Cl)[C@]1(F)CC[C@H](O)c2ncccc21` [Example 187, (5S,8S)-N-(2-chloro-4-(trifluoromethyl)benzyl)-5-fluoro-8-hydroxy-5,6,7,8-tetrahydroquinoline-5-carboxamide], on rat P2X7, the IC50 was less than 1000 nM.

As for `C[C@]1(O)CC[C@@](F)(C(=O)NCc2c(F)cc(Cl)cc2Cl)c2cccnc21` [Example 265, (5S,8S)-N-(2,4-dichloro-6-fluorobenzyl)-5-fluoro-8-hydroxy-8-methyl-5,6,7,8-tetrahydroquinoline-5-carboxamide], the IC50 on rat P2X7 is less than 1000 nM.

As to `C[C@]1(O)CC[C@@](F)(C(=O)NCc2c(F)cc(F)cc2Cl)c2cccnc21` [Example 266, (5S,8S)-N-(2-chloro-4,6-difluorobenzyl)-5-fluoro-8-hydroxy-8-methyl-5,6,7,8-tetrahydroquinoline-5-carboxamide], at rat P2X7, the half-inhibitory concentration (IC50) is less than 1000 nM.

For `C[C@]1(O)CC[C@@](F)(C(=O)NCc2ccc(Cl)c(F)c2F)c2cccnc21` [Example 267, (5S,8S)-N-(4-chloro-2,3-difluorobenzyl)-5-fluoro-8-hydroxy-8-methyl-5,6,7,8-tetrahydroquinoline-5-carboxamide], the IC50 at rat P2X7 was less than 1000 nM.

Take `C[C@]1(O)CC[C@@](F)(C(=O)NC2CC2c2ccc(Cl)cc2Cl)c2cccnc21` (stereo partly drawn) [Example 273, (5S,8S)-N-((trans)-2-(2,4-dichlorophenyl)cyclopropyl)-5-fluoro-8-hydroxy-8-methyl-5,6,7,8-tetrahydroquinoline-5-carboxamide]: the IC50 at rat P2X7 is less than 1000 nM.

Turning to `O=C1CO[C@@]2(CC[C@](F)(C(=O)NCc3ccc(Cl)cc3Cl)c3cccnc32)CN1` [Example 293, (2S,5′R)-N-(2,4-dichlorobenzyl)-5′-fluoro-5-oxo-6′,7′-dihydro-5′H-spiro [morpholine-2,8′-quinoline]-5′-carboxamide], the half-maximal inhibitory concentration (IC50) against human P2X7 was 1000 to 3000 nM.

On to `Cc1cnc2c(c1)[C@](F)(C(=O)NCc1ccc(Cl)cc1Cl)CC[C@@]2(O)CO` [Example 325, (5S,8S)-N-(2,4-dichlorobenzyl)-5-fluoro-8-hydroxy-8-(hydroxymethyl)-3-methyl-5,6,7,8-tetrahydroquinoline-5-carboxamide], for which, at human P2X7, the IC50 lay in the range of 1000 to 3000 nM.

In turn, `O=C(NCCc1ccc(Cl)cc1Cl)[C@]1(F)CC[C@@](O)(CO)c2ncccc21` [Example 330, (5S,8S)-N-(2,4-dichlorophenethyl)-5-fluoro-8-hydroxy-8-(hydroxymethyl)-5,6,7,8-tetrahydroquinoline-5-carboxamide] came in with an IC50 against human P2X7 of 301 to 1000 nM.

The compound `O=C(NC1CC1c1ccc(Cl)cc1Cl)[C@]1(F)CC[C@@](O)(CO)c2ncccc21` (stereo partly drawn) [Example 331, (5S,8S)-N-((trans)-2-(2,4-dichlorophenyl)cyclopropyl)-5-fluoro-8-hydroxy-8-(hydroxymethyl)-5,6,7,8-tetrahydroquinoline-5-carboxamide] returned an IC50 at human P2X7 of 50 to 100 nM.

At human P2X7, `O=C(NCC1(c2ccc(Cl)cc2Cl)CCOCC1)[C@]1(F)CC[C@@](O)(CO)c2ncccc21` [Example 332, (5S,8S)-N-((4-(2,4-dichlorophenyl)tetrahydro-2H-pyran-4-yl)methyl)-5-fluoro-8-hydroxy-8-(hydroxymethyl)-5,6,7,8-tetrahydroquinoline-5-carboxamide] yielded a concentration for half-maximal inhibition (IC50) of 1000 to 3000 nM.

In the case of `CO[C@H]1CC[C@@](F)(C(=O)NCc2c(F)cc(Cl)cc2Cl)c2cccnc21` [Example 335, (5S,8S)-N-(2,4-dichloro-6-fluorobenzyl)-5-fluoro-8-methoxy-5,6,7,8-tetrahydroquinoline-5-carboxamide], the IC50 on rat P2X7 is less than 1000 nM.

With `O=C(NCc1ccc(Cl)cc1Cl)[C@@]1(F)CC[C@@H](OCCO)c2ncccc21` [Example 348, (5R,8R)-N-(2,4-dtchlorobenzyl)-5-fluoro-8-(2-hydroxyethoxy)-5.6,7,8-tetrahydroquinoline-5-carboxamide], the 50% inhibitory concentration (IC50) at human P2X7 lay within 101 to 300 nM.

With `CS(=O)(=O)C1CC[C@@](F)(C(=O)NCc2ccc(Cl)cc2Cl)c2cccnc21` (stereo partly drawn) [Example 350], the IC50 on rat P2X7 is less than 1000 nM.

With `O=C(NCc1ccc(Cl)cc1Cl)[C@@]1(F)CC[C@H](F)c2ncccc21` [Example 353, (5R,8S)-N-(2,4-dichlorobenzyl)-5,8-difluoro-5,6,7,8-tetrahydroquinoline-5-carboxamide], at human P2X7, the IC50 lay within 50 to 100 nM.

Turning to `O=C(NCc1cccc(Cl)c1Cl)[C@@]1(F)CC[C@H](F)c2ncccc21` [Example 354, (5R,8S)-N-(2,3-dichlorobenzyl)-5.8-difluoro-5,6,7,8-tetrahydroquinaline-5-carboxamide], the IC50 on human P2X7 was in the range of 50 to 100 nM.
